# Data from paper PMC9407205, “Neuroprotective Potential of Thinned Peaches Extracts Obtained by Pressurized Liquid Extraction after Different Drying Processes” (Foods, 2022).
# Marks after values point to notes of the source that are not given here.
# Assays:
# [1] = parallel artificial membrane permeability assay for the BBB (PAMPA-BBB); format: in vitro ADME; conditions: metabolites in the five PLE extracts, 4 h at 37 °C, pH 7.4; result in words
# Description: The parallel artificial membrane permeability assay for the BBB assay was carried out as previously described with some modifications. Briefly, 20 mg/mL thinned peach extracts in 50% ethanol (v/v) was diluted to 5 mg/mL with potassium phosphate buffer (10 mmol/L, pH 7.4). Then, 350 μL of 5 mg/mL extracts and 350 μL of buffer were added to each well of the donor plate and the acceptor plate, respectively. The filter membrane of the donor plate was coated with 5 µL of BBB solution. Afterwards, the whole plate was incubated in the dark for 4 h at 37 °C. After incubation, 300 µL of sample from each well in the donor and acceptor plates was taken out, collected and dried. The dried acceptor and donor samples were redissolved in 50 µL of ethanol and analyzed via HPLC-Q-TOF-MS/MS as described below. The permeability across the artificial BBB of each compound was calculated in terms of cm/s, as in [16].
# [2] = RNS scavenging capacity, nitric oxide (NO) radical scavenging assay; conditions: at the maximum concentration tested, 0.8 mg/mL; PLE extracts under optimized conditions and ascorbic acid
# Description: The RNS scavenging capacity was estimated by referring to the nitric oxide (NO) radical scavenging assay described by Ho et al. (2010), with some modifications. In brief, 100 μL of the thinned peach extracts in 25% ethanol (v/v) was mixed with 50 μL of 5 mM sodium nitroprusside dehydrate in buffer (30 mmol/L phosphate buffer at pH 7.5) using a transparent 96-well plate. The mixtures were placed under white light at room temperature for 60 min. Afterwards, 100 μL of Griess reagent (500 mg sulphanilamide, 50 mg naphthylethylene diamine dihydrochloride and 1.25 mL of phosphoric acid in 48.5 mL of H2O) was added to each well. The mixtures were allowed to stand for 5 min and the absorbance was read at 546 nm. Ascorbic acid was used as the reference standard and the NO scavenging capacity was calculated as described by Sánchez-Martínez et al. (2021).
# [3] = ROS scavenging capacity, oxygen radical absorbance capacity (ORAC) assay; conditions: PLE extracts under optimized conditions (50% ethanol, 180 °C) and reference standard
# Description: The ROS scavenging capacity was measured using the oxygen radical absorbance capacity (ORAC) assay described by Ou et al. (2001). Briefly, the reaction mixture contained 100 μL of samples at different concentrations in 10% ethanol (v/v), 100 μL of 590 mmol/L AAPH in 30 mmol/L phosphate buffer (pH 7.5), 100 μL of phosphate buffer and 25 μL of 10 μmol/L fluorescein in buffer. The absorbance was read at the 485 nm excitation spectrum and 528 nm emission spectrum, and recorded at 5 min intervals for 60 min at 37 °C. Ascorbic acid was used as the reference standard and 10% ethanol (v/v) was used as the control. The ROS scavenging capacity was calculated as described by Sánchez-Martínez et al. (2021).
SMILES,ability to cross the artificial BBB [1],"RNS, percentage of inhibition of nitrogen species with respect to the control [2]",ROS (IC50) [3]
"CC(=O)c1ccc(O)c(O)c1 [3,4-dihydroxyacetophenone, 3,4-Dihydroxyacetophenone]",could cross the BBB,–,–
"Cc1cc(=O)oc2c(O)c(O)ccc12 [4-methyldaphnetin, 4-Methyldaphnetin]",could cross the BBB,–,–
"CCCCCCCC(O)/C=C\C(O)CCC(O)CCCC(=O)O (stereo not shown) [(9Z)-5,8,11-Trihydroxyoctadec-9-enoic acid]",could cross the BBB,–,–
O=C1O[C@H]([C@@H](O)CO)C(O)=C1O [Ascorbic acid],–,83.8 ± 4 ^a %,3.3 ± 0.6 ^e µg/mL
"COc1ccc(/C=C/C(=O)O)cc1O [isoferulic acid, Isoferulic acid]",could cross the BBB,–,–
"CC1(C)CC[C@]2(C(=O)O)CC[C@]3(C)C(=CCC4[C@@]5(C)C[C@@H](O)[C@H](O)[C@](C)(CO)C5CC[C@]43C)[C@@H]2[C@@H]1O (stereo partly drawn) [triterpenoid 3, (1S,4aR,6aS,6bR,9S,10R,11R,12aR,14bS)-1,10,11-trihydroxy-9-(hydroxymethyl)-2,2,6a,6b,9,12a-hexamethyl-1,3,4,5,6,6a,7,8,8a,10,11,12,13,14b-tetradecahydropicene-4a-carboxylic acid]",highest permeability value,–,–
